Measured values taken from patent USRE33699E, “Growth hormone-releasing factor analogs” (International Minerals & Chemical Corp., priority 1990, dated 1991).
Square brackets hold non-standard residues; d marks the D form. Peptide text beside a SMILES is read from it. Nle = CCCC[C@H](N)C(=O)O

Tested on: rat pituitary cells
Test: Bioassay of hGRF analogs: stimulation of growth hormone release in rat pituitary cells in tissue culture
Format: cell-based
Settings: for Dose Needed to Release 2.01 μg/ml of GH: 2.01 μg/ml = GH released at the ED50 of hGRF; for Dose Needed to Release 2.01 μg/ml of GH / Relative Maximum Activity (% of hGRF): from ALLFIT curves; for Potency: (ED50 of hGRF)/(Dose required to give same response as ED50 of hGRF)
From the text: The assay for biological activity, which is based on the ability to stimulate release of growth hormone in rat pituitary cells in tissue culture, has been described in detail (Culler, M. D.; Kenjo, T.: Obara, N.; Arimuar, A., Stimulation of cAMP. Accumulation by Human Pancreatic GH-Releasing Factor(1-44). Am. J. Physiol. 1984, 247 (Endocrinol.Metab. 10). E609-E615.
ALLFIT, the 4-parameter logistic curve fitting program available from the Biomedical Computer Technology Information Center, Vanderbilt Medical Center, Nashville Tenn., was used to determine ED50 and maximal stimulated values from the data. In several instances, the amount of GH released reached a maximum value and decreased with further increasing doses of the hGRF analogs. To simplify the data analysis, these values were not used in the calculations. The calculated maximal responses, the doses of the analog required to release the amount of GH released at the ED50 of the standard (hGRF) and the potencies of the analogs relative to hGRF, are given in Table 2. Generally all novel analogs were fully active and were able to stimulate the release of growth hormone with maximal values of GH release being within 80% of the value for natural hGRF.

| Compound | Dose Needed to Release 2.01 μg/ml of GH [nM] | Potency [%] | Potency (Asp^8, Asn^25, Nle^27 ]) [%] | Relative Maximum Activity (% of hGRF) | Potency (Asp^8, Nle^27 ]) [%] |
| --- | --- | --- | --- | --- | --- |
| CCCC[C@H](NC(=O)[C@@H](NC(=O)[C@H](CC(N)=O)NC(=O)[C@H](CCC(N)=O)NC(=O)[C@H](CC(C)C)NC(=O)[C@H](CC(C)C)NC(=O)[C@H](CCCCN)NC(=O)[C@H](CCCNC(=N)N)NC(=O)[C@H](C)NC(=O)[C@H](CO)NC(=O)[C@H](CC(C)C)NC(=O)[C@H](CCC(N)=O)NC(=O)CNC(=O)[C@H](CC(C)C)NC(=O)[C@@H](NC(=O)[C@H](CCCCN)NC(=O)[C@H](CCCNC(=N)N)NC(=O)[C@H](Cc1ccc(O)cc1)NC(=O)[C@H](CO)NC(=O)[C@H](CC(=O)O)NC(=O)[C@@H](NC(=O)[C@H](Cc1ccccc1)NC(=O)[C@@H](NC(=O)[C@H](C)NC(=O)[C@H](CC(N)=O)NC(=O)[C@H](C)NC(=O)[C@@H](N)Cc1ccc(O)cc1)[C@@H](C)CC)[C@@H](C)O)C(C)C)[C@@H](C)CC)C(=O)N[C@@H](CO)C(=O)N[C@@H](CCCNC(=N)N)C(=O)N[C@@H](CCC(N)=O)C(=O)N[C@@H](CCC(N)=O)C(N)=O [[Asn^3,Asp^8,Asn^25,Nle^27]-hGRF(1-31)--NH2] (H-YANAIFTDSYRKVLGQLSARKLLQNI[Nle]SRQQ-NH2) | 12.05 | 5 | 3 | 94 % of hGRF |  |
| CCCC[C@H](NC(=O)[C@@H](NC(=O)[C@H](CC(=O)O)NC(=O)[C@H](CCC(N)=O)NC(=O)[C@H](CC(C)C)NC(=O)[C@H](CC(C)C)NC(=O)[C@H](CCCCN)NC(=O)[C@H](CCCNC(=N)N)NC(=O)[C@H](C)NC(=O)[C@H](CO)NC(=O)[C@H](CC(C)C)NC(=O)[C@H](CCC(N)=O)NC(=O)CNC(=O)[C@H](CC(C)C)NC(=O)[C@@H](NC(=O)[C@H](CCCCN)NC(=O)[C@H](CCCNC(=N)N)NC(=O)[C@H](Cc1ccc(O)cc1)NC(=O)[C@H](CO)NC(=O)[C@H](CC(=O)O)NC(=O)[C@@H](NC(=O)[C@H](Cc1ccccc1)NC(=O)[C@@H](NC(=O)[C@H](C)NC(=O)[C@H](CC(=O)O)NC(=O)[C@H](C)NC(=O)[C@@H](N)Cc1ccc(O)cc1)[C@@H](C)CC)[C@@H](C)O)C(C)C)[C@@H](C)CC)C(=O)N[C@@H](CO)C(=O)N[C@@H](CCCNC(=N)N)C(=O)N[C@@H](CCC(N)=O)C(=O)N[C@@H](CCC(N)=O)C(N)=O [[Asp^8, Nle^27]-hGRF(1-31)--NH2, [Asp^8,Nle^27]-hGRF(1-31)--NH2] (H-YADAIFTDSYRKVLGQLSARKLLQDI[Nle]SRQQ-NH2) | 0.39 | 82 |  | 109 % of hGRF |  |
| CCCC[C@H](NC(=O)[C@@H](NC(=O)[C@H](CC(=O)O)NC(=O)[C@H](CCC(N)=O)NC(=O)[C@H](CC(C)C)NC(=O)[C@H](CC(C)C)NC(=O)[C@H](CCCCN)NC(=O)[C@H](CCCNC(=N)N)NC(=O)[C@H](C)NC(=O)[C@H](CO)NC(=O)[C@H](CC(C)C)NC(=O)[C@H](CCC(N)=O)NC(=O)CNC(=O)[C@H](CC(C)C)NC(=O)[C@@H](NC(=O)[C@H](CCCCN)NC(=O)[C@H](CCCNC(=N)N)NC(=O)[C@H](Cc1ccc(O)cc1)NC(=O)[C@H](CO)NC(=O)[C@H](CC(=O)O)NC(=O)[C@@H](NC(=O)[C@H](Cc1ccccc1)NC(=O)[C@@H](NC(=O)[C@H](C)NC(=O)[C@H](CC(N)=O)NC(=O)[C@H](C)NC(=O)[C@@H](N)Cc1ccc(O)cc1)[C@@H](C)CC)[C@@H](C)O)C(C)C)[C@@H](C)CC)C(=O)N[C@@H](CO)C(=O)N[C@@H](CCCNC(=N)N)C(=O)N[C@@H](CCC(N)=O)C(=O)N[C@@H](CCC(N)=O)C(N)=O [[Asn^3, Asp^8, Nle^27]-hGRF(1-31)--NH2, [Asn^3,Asp^8,Nle^27]-hGRF(1-31)--NH2] (H-YANAIFTDSYRKVLGQLSARKLLQDI[Nle]SRQQ-NH2) | 6.74 | 3 |  | 107 % of hGRF | 5 |
| CCCC[C@H](NC(=O)[C@@H](NC(=O)[C@H](CC(N)=O)NC(=O)[C@H](CCC(N)=O)NC(=O)[C@H](CC(C)C)NC(=O)[C@H](CC(C)C)NC(=O)[C@H](CCCCN)NC(=O)[C@H](CCCNC(=N)N)NC(=O)[C@H](C)NC(=O)[C@H](CO)NC(=O)[C@H](CC(C)C)NC(=O)[C@H](CCC(N)=O)NC(=O)CNC(=O)[C@H](CC(C)C)NC(=O)[C@@H](NC(=O)[C@H](CCCCN)NC(=O)[C@H](CCCNC(=N)N)NC(=O)[C@H](Cc1ccc(O)cc1)NC(=O)[C@H](CO)NC(=O)[C@H](CC(N)=O)NC(=O)[C@@H](NC(=O)[C@H](Cc1ccccc1)NC(=O)[C@@H](NC(=O)[C@H](C)NC(=O)[C@H](CC(=O)O)NC(=O)[C@H](C)NC(=O)[C@@H](N)Cc1ccc(O)cc1)[C@@H](C)CC)[C@@H](C)O)C(C)C)[C@@H](C)CC)C(=O)N[C@@H](CO)C(=O)N[C@@H](CCCNC(=N)N)C(=O)N[C@@H](CCC(N)=O)C(=O)N[C@@H](CCC(N)=O)C(N)=O [[Asn^25, Nle^27]-hGRF(1-31)--NH2, [Asn^25,Nle^27]-hGRF(1-31)--NH2] (H-YADAIFTNSYRKVLGQLSARKLLQNI[Nle]SRQQ-NH2) | 0.12 | 267 |  | 96 % of hGRF |  |
| CCCC[C@H](NC(=O)[C@@H](NC(=O)[C@H](CC(N)=O)NC(=O)[C@H](CCC(N)=O)NC(=O)[C@H](CC(C)C)NC(=O)[C@H](CC(C)C)NC(=O)[C@H](CCCCN)NC(=O)[C@H](CCCNC(=N)N)NC(=O)[C@H](C)NC(=O)[C@H](CO)NC(=O)[C@H](CC(C)C)NC(=O)[C@H](CCC(N)=O)NC(=O)CNC(=O)[C@H](CC(C)C)NC(=O)[C@@H](NC(=O)[C@H](CCCCN)NC(=O)[C@H](CCCNC(=N)N)NC(=O)[C@H](Cc1ccc(O)cc1)NC(=O)[C@H](CO)NC(=O)[C@H](CC(N)=O)NC(=O)[C@@H](NC(=O)[C@H](Cc1ccccc1)NC(=O)[C@@H](NC(=O)[C@H](C)NC(=O)[C@H](CC(N)=O)NC(=O)[C@H](C)NC(=O)[C@@H](N)Cc1ccc(O)cc1)[C@@H](C)CC)[C@@H](C)O)C(C)C)[C@@H](C)CC)C(=O)N[C@@H](CO)C(=O)N[C@@H](CCCNC(=N)N)C(=O)N[C@@H](CCC(N)=O)C(=O)N[C@@H](CCC(N)=O)C(N)=O [[Asn^3, Asn^25, Nle^27]-hGRF(1-31)--NH2, [Asn^3,Asn^25,Nle^27]-hGRF (1-31)--NH2] (H-YANAIFTNSYRKVLGQLSARKLLQNI[Nle]SRQQ-NH2) | 1.54 | 21 |  | 101 % of hGRF |  |
| CC[C@H](C)[C@H](NC(=O)[C@H](C)NC(=O)[C@H](CC(=O)O)NC(=O)[C@H](C)NC(=O)[C@@H](N)Cc1ccc(O)cc1)C(=O)N[C@@H](Cc1ccccc1)C(=O)N[C@H](C(=O)N[C@@H](CC(N)=O)C(=O)N[C@@H](CO)C(=O)N[C@@H](Cc1ccc(O)cc1)C(=O)N[C@@H](CCCNC(=N)N)C(=O)N[C@@H](CCCCN)C(=O)N[C@H](C(=O)N[C@@H](CC(C)C)C(=O)NCC(=O)N[C@@H](CCC(N)=O)C(=O)N[C@@H](CC(C)C)C(=O)N[C@@H](CO)C(=O)N[C@@H](C)C(=O)N[C@@H](CCCNC(=N)N)C(=O)N[C@@H](CCCCN)C(=O)N[C@@H](CC(C)C)C(=O)N[C@@H](CC(C)C)C(=O)N[C@@H](CCC(N)=O)C(=O)N[C@@H](CC(=O)O)C(=O)N[C@H](C(=O)N[C@@H](CCSC)C(=O)N[C@@H](CO)C(=O)N[C@@H](CCCNC(=N)N)C(=O)N[C@@H](CCC(N)=O)C(=O)N[C@@H](CCC(N)=O)C(=O)NCC(=O)N[C@@H](CCC(=O)O)C(=O)N[C@@H](CO)C(=O)N[C@@H](CC(N)=O)C(=O)N[C@@H](CCC(N)=O)C(=O)N[C@@H](CCC(=O)O)C(=O)N[C@@H](CCCNC(=N)N)C(=O)NCC(=O)N[C@@H](C)C(=O)N[C@@H](CCCNC(=N)N)C(=O)N[C@@H](C)C(=O)N[C@@H](CCCNC(=N)N)C(=O)N[C@@H](CC(C)C)C(N)=O)[C@@H](C)CC)C(C)C)[C@@H](C)O [hGRF(1-44)--NH2, reference compound] | 0.32 | 100 |  | 100 % of hGRF |  |
| CCCC[C@H](NC(=O)[C@@H](NC(=O)[C@H](CC(N)=O)NC(=O)[C@H](CCC(N)=O)NC(=O)[C@H](CC(C)C)NC(=O)[C@H](CC(C)C)NC(=O)[C@H](CCCCN)NC(=O)[C@H](CCCNC(=N)N)NC(=O)[C@H](C)NC(=O)[C@H](CO)NC(=O)[C@H](CC(C)C)NC(=O)[C@H](CCC(N)=O)NC(=O)CNC(=O)[C@H](CC(C)C)NC(=O)[C@@H](NC(=O)[C@H](CCCCN)NC(=O)[C@H](CCCNC(=N)N)NC(=O)[C@H](Cc1ccc(O)cc1)NC(=O)[C@H](CO)NC(=O)[C@H](CC(=O)O)NC(=O)[C@@H](NC(=O)[C@H](Cc1ccccc1)NC(=O)[C@@H](NC(=O)[C@H](C)NC(=O)[C@H](CC(=O)O)NC(=O)[C@H](C)NC(=O)[C@@H](N)Cc1ccc(O)cc1)[C@@H](C)CC)[C@@H](C)O)C(C)C)[C@@H](C)CC)C(=O)N[C@@H](CO)C(=O)N[C@@H](CCCNC(=N)N)C(=O)N[C@@H](CCC(N)=O)C(=O)N[C@@H](CCC(N)=O)C(N)=O [[Asp^8, Asn^25, Nle^27]-hGRF(1-31)--NH2, [Asp^8,Asn^25,Nle^27]-hGRF(1-31)--NH2] (H-YADAIFTDSYRKVLGQLSARKLLQNI[Nle]SRQQ-NH2) | 0.42 | 76 |  | 87 % of hGRF |  |
